Measurements taken from US20060281728A1, “3-Substituted beta-lactamyl vasopressin v1a antagonists” (priority 2003, published 2006).

Target: human V1a receptor (Homo sapiens, UniProt P37288)
Assay: Human vasopressin V1a receptor binding assay
Conditions: competitive binding against 1 nM 3H-AVP, hV1a cell line (CHO cells), 45 minutes at 37° C.
Procedure: A cell line expressing the human V1a receptor in CHO cells (henceforth referred to as the hV1a cell line) was obtained from Dr. Michael Brownstein, NIMH, Bethesda, Md., USA. The hV1a cDNA sequence is described by Thibonnier et al., Journal of Biological Chemistry, 269:3304-3310 (1994), and the expression method was the same as described by Morel et al. (1992). The hV1a cell line was grown in alpha-MEM with 10% fetal bovine serum and 250 ug/ml G418 (Gibco, Grand Island, N.Y., USA). For competitive binding assay, hV1a cells were plated into 6-well culture plate at 1:10 dilution from a confluency flask, and maintained in culture for at least two days. Culture medium was then removed, cells were washed with 2 ml binding buffer (25 mM Hepes, 0.25% BSA, 1×DMEM, PH=7.0). To each well, 990 μl binding buffer containing 1 nM 3H-AVP was added, and followed by 10 μl series diluted Example compounds dissolved in DMSO. All incubations were in triplicate, and dose-inhibition curves consisted of total binding (DMSO) and 5 concentrations (0.1, 1.0, 10, 100, and 1000 nM) of test agents encompassing the IC50. 100 nM cold AVP (Sigma) was used to assess non-specific binding. […] Samples were counted in a liquid scintillation counter (Beckman LS3801). IC50 values were calculated by Prism Curve fitting software.

human V1a receptor, sequence (P37288 whole entry): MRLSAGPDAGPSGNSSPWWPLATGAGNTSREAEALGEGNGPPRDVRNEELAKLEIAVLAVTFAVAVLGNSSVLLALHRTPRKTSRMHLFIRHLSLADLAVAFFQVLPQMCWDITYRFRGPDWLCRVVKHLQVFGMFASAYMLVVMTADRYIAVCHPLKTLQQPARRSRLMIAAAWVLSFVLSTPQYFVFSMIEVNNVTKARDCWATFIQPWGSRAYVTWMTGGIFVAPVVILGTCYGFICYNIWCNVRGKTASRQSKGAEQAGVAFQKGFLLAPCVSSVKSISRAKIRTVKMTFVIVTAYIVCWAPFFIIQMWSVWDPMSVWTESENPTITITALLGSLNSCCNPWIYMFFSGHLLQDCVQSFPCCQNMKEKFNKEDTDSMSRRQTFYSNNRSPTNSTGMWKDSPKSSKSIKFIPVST

IC50: 5 nM
SMILES: C[C@@]1(N2C(=O)OC[C@@H]2c2ccccc2)C(=O)N([C@H](CC(=O)N2CCC(N3CCCCC3)CC2)C(=O)NCc2cccc(C(F)(F)F)c2)[C@@H]1/C=C/c1ccccc1 [Example 33, 4-(Piperidin-1-yl)-piperidin-1-yl 3(R)-[3(S)-(4(S)-phenyloxazolidin-2-on-3-yl)-3-methyl-4(R)-(styr-2-yl)azetidin-2-on-1-yl]-3-[(3-trifluoromethyl)phenylmethylaminocarbonyl]propanoic acid]
